Measured values taken from US20230009323A1, “COMPOUNDS AND METHODS FOR THE TREATMENT OF CRYPTOSPORIDIOSIS” (The Broad Institute, Inc., priority 2019, published 2023).
“Also recorded” adds a separate entry of the source. Read-outs that look alike come from different tables or passages of the source.

Tests used:
C. parvum [1] = test: Host cell invasion assay; type: cell-based, Cryptosporidium parvum
C. parvum [2] = test: NOD SCID gamma mouse model of established cryptosporidiosis, fecal oocyst shedding by qPCR; type: in vivo, NOD SCID gamma mice
Text: FIG. 4A is a schematic of NOD SCID gamma (NSG) mouse model of established intestinal cryptosporidiosis. Intestinal C. parvum infection was established by oral gavage of ˜10^5 oocysts either 7 days (FIGS. 4B and C) or 14 days (FIG. 4D) prior to oral treatment with bicyclic azetidines, vehicle, or paromomycin (positive control). All data are the mean and SEM (n=4 mice per experimental group) of parasite shedding per mg of feces measured by qPCR with results for individual mice shown as superimposed data points. Data points for which no parasite DNA was detected are shown at the qPCR assay limit of detection (0.1 oocysts per mg feces).
NOD scid gamma mice (NOD.Cg-Prkdcscid Il2rgtmlWjl/Szj; Jackson Laboratory, Bar Harbor, Me.) (NSG) were used to model established Cryptosporidium infection. All NSG mouse studies were performed in compliance with animal care guidelines and with approval by the University of Vermont Institutional Animal Care and Use Committee. Mice were acquired at three to four weeks of age, and acclimatized for one week prior to infection by oral gavage of ˜10^5 C. parvum Iowa isolate (Bunch Grass Farms) oocysts. They were then treated at the specified times and dosages with each compound dissolved in 0.5% hydroxypropylmethyl cellulose, 0.5% Tween 80 (v/v) plus 5% DMSO.
This cryptosporidiosis infection model used 3-4 week old, freshly weaned, NOD SCID gamma mice orally infected with C. parvum oocysts (˜1×10^5). The infection was monitored by qPCR of feces with primers specific for C. parvum and data are shown as number of oocysts milligram^−1 of feces. Six days following infection and upon confirmation of parasite shedding by qPCR, the three compounds, negative and positive control were orally administered at 50 mg·kg^−1 (body weight) every 24 h for 4 days. (FIGS. 4A-D). […] We then performed a dose-ranging study with Compound 11 using the same immunocompromised mouse model and dosing regimens of 5, 20 and 40 mg·kg^−1 every 24 h for 4 days or 10 mg·kg^−1 every 24 h for 7 days. Mice were monitored for an additional 14 days for relapse of infection.

[3] = tested on: C. parvum Iowa isolate (Bunch Grass Farm); test: C. parvum Iowa isolate (Bunch Grass Farm) growth in HCT-8 cells, high-content microscopy; type: cell-based; settings: Cryptosporidium parvum
Method: A high-content microscopy assay was used to measure activity of compounds against C. parvum grown in the human adenocarcinoma cell line HCT-8 (ATCC) as disclosed in Bessoff, K., et al., Antimicrobial agents and chemotherapy 57, 1804-1814, doi:10.1128/AAC.02460-12 (2013), hereby incorporated by reference in its entirety. HCT-8 cells were cultured in 384-well clear-bottomed plates in 50 μL per well of RPMI 1640 medium ([…]), 120 U·mL^−1 penicillin, and 120 μg·mL^−1 streptomycin (ATCC) at 37° C. under 5% CO2. For compound screening and follow-up SAR studies, confluent cell monolayers were infected with C. parvum Iowa isolate oocysts [Bunch Grass Farm (Deary, Id.); ˜5,500 oocysts per well] after inducing excystation by treatment for 10 min at 37° C. with 10 mM HCl and then 10 min at 16° C. in 2 mM sodium taurocholate. Compounds were added at the indicated concentrations 3 h after monolayer infection. After incubation (37° C., 5% CO2) for 48 h, the cells were washed three times with PBS containing 111 mM D-Galactose and fixed by adding an equal volume of 8% formaldehyde in PBS. Cell monolayers were then prepared for microscopy by permeabilizing with 0.1% Triton X-100, washing three times with PBS with 0.1% Tween 20, blocking with 4% bovine serum albumin (BSA) in PBS for 2 h at 37° C. or 4° C. overnight, and staining parasitophorous vacuoles with 1.33 μg·mL^−1 of fluorescein-labeled Vicia villosa lectin (Vector Laboratories) diluted in 1% BSA in PBS with 0.1% Tween 20 for 1 h at 37° C. DNA was then stained by adding Hoechst 33258 (AnaSpec) at a final concentration of 0.09 mM diluted in water, followed by washing five times with PBS containing 0.1% Tween 20. Images were acquired using a Nikon Eclipse TE2000 epifluorescence microscope with an automated stage that was programmed using NIS-Elements Advanced Research software (Nikon) to focus on the center of each well and take a 3×3 composite image using an EXi Blue fluorescence microscopy camera (QImaging) with a 20× objective (numerical aperture 0.45). Nucleus and parasite images were exported separately as tif files and analyzed using NIH ImageJ and previously reported macros, and data analysis and graphing were done using GraphPad Prism software, version 6.01. […]

In the case of `COc1ccc(NC(=O)N2CCCCN3[C@H](CN(C)C)[C@H](c4ccc(C#Cc5ccccc5)cc4)[C@@H]3C2)cc1` [Compound 11, (8R,9S,10S)-10-((dimethylamino)methyl)-N-(4-methoxyphenyl)-9-(4-(phenylethynyl)phenyl)-1,6-diazabicyclo[6.2.0]decane-6-carboxamide], the “effect on host cell invasion” value (C. parvum [1]) is reported as “No effect”, the “oocyst shedding at follow-up for relapse” value (C. parvum [2]; 10 mg/kg every 24 h for 7 days, monitored an additional 14 days) is reported as “no oocyst shedding was observed” and the “log reduction in oocysts·mg^−1 stool” value (C. parvum [2]; oral, 50 mg/kg every 24 h for 4 days) is reported as about 3 log. The “reduction in oocyst shedding (oocysts per mg feces)” value (C. parvum [2]; oral, 50 mg/kg every 24 h for 4 days, 50 mg/kg) was “significant reduction in oocyst shedding; also recorded: greatest reduction in oocysts”, the EC50 ([3]; read-out: C. parvum (Iowa) (1% FBS) BGF EC50) was 9 nM and the EC50 ([3]; read-out: C. parvum (Iowa) (10% FBS) BGF EC50) was 73 nM. For the same molecule, the EC50 ([3]; serum not given, read-out: C. parvum EC50) was under 73 nM.
